The test concerns the target T1, human HSL (Homo sapiens, UniProt Q05469).
T1 construct: overlapping PCR to generate a full length human HSL ORF with a 3′-His6 tag; His6 (C); made in house; host or cells: High 5 insect cells (baculovirus, pFast-BAC)
T1 sequence (Q05469 1-1076): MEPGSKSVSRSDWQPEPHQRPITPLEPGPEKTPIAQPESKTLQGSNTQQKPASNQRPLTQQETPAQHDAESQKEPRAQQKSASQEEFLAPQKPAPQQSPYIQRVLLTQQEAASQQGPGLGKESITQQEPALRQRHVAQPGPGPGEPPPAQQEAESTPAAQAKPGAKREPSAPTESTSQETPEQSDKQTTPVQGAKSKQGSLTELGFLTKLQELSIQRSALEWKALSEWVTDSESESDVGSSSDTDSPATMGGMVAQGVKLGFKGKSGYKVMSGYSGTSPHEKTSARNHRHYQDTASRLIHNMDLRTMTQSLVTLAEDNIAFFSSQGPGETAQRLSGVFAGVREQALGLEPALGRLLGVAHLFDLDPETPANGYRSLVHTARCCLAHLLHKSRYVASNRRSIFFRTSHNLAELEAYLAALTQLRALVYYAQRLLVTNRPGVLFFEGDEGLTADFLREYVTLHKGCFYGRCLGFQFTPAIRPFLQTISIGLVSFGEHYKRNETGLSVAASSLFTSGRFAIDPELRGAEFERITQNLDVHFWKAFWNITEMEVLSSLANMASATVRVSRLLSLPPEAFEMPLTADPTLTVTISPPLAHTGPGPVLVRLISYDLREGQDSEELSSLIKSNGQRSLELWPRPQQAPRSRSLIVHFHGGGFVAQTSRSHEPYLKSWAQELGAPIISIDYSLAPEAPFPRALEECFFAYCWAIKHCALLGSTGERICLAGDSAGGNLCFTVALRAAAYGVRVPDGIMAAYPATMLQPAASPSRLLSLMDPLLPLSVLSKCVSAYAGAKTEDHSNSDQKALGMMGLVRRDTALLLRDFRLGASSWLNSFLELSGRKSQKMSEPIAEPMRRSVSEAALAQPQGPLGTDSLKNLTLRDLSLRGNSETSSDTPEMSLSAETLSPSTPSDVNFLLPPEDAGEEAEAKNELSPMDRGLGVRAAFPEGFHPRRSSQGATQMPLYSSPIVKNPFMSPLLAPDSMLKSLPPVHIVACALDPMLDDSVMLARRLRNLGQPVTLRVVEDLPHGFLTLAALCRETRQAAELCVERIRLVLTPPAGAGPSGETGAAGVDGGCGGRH
Kind of test: Human hormone-sensitive lipase (HSL) enzyme inhibition assay (colorimetric, DMPT substrate). Format: biochemical. The note with it: human full length HSL-His6; 2,3-dimercapto-1-propanol tributyrate substrate; 37° C., 20 minutes; read-out: HSL hum IC50. Here is the method:
Production of Human Full Length Hormone Sensitive Lipase-His^6:
1) Cloning: cDNA was prepared from commercial human brain polyA+ RNA and used as a template in overlapping PCR to generate a full length human HSL ORF with a 3′-His6 tag. This full length insert was cloned into the pFast-BAC vector and the DNA-sequence of several single clones was verified. DNA from a correct full length clone with the 3′His6 tag was used to transform the E. coli strain DH10BAC. Resulting bacmid DNA was used to generate a titered baculovirus stock for protein generation. The sequence of the encoded HSL conforms to Swissprot entry Q05469, with the additional C-terminal His6-tag.
2) Protein purification: Culture: 5.5 L, High 5 cells expressing human full length HSL-His^6, 48 hr., containing 25 μM E-64. Cell count: […], 90% viable. Cells were thawed. On ice, cells were suspended in Base Buffer containing 10% glycerol, 25 mM Tris-Cl, 300 mM NaCl, 10 mM imidazole, 10 mM 2-mercaptoethanol, 2 μg pepstatin/ml, 2 μg leupeptin/ml, 2 μg antipain/ml, pH 8.0 at 4° C. in a final volume of 475 ml with 3.75×10^7 cells/ml. […] was done at 3×30 sec., Lubrol PX was added to 0.2% final concentration followed by stirring for 15 min. at 4° C. and centrifugation at 25 k×g, 60 min., 4° C. Soluble proteins were mixed with 60 ml of pre-washed and equilibrated Ni-NTA Agarose (Qiagen 30210) followed by tumbling end-over-end, 45 min., 4° C., centrifugation 1000 rpm 5 min and letting resin settle 5 min. Supernatant was removed, the resin washed in the centrifuge vessel using 5 volumes of Base Buffer containing 0.2% Lubrol PX. Centrifugation was done again, then the supernatant discarded. The resin was poured onto a 0.8 μm membrane in a disposable filter unit (Nalge 450-0080), and washed with 5 volumes of Base Buffer containing 0.2% Lubrol PX. It was then washed with 30 volumes of Base Buffer containing 60 mM imidazole pH 7.5 at 4° C. The protein was eluated with 5 volumes of 25 mM Tris-Cl, 300 mM NaCl, 200 mM imidazole, 10 mM 2-mercaptoethanol, pH 7.5 at 4° C. by tumbling resin with buffer end-over-end, 30 min., 4° C. The resin was captured on a 0.2 μm membrane disposable filter unit (Millipore SCGP U02 RE) and the eluate collected in the reservoir. The eluate was concentrated using a 30 k MWCO centrifugal filter device (Sartorius Vivascience Vivacell 100, VC1022), to 20 ml. It was then dialyzed overnight at 4° C., two times against 2 L of 10% glycerol, 25 mM Tris-Cl, 300 mM NaCl, 0.2 mM EDTA, 0.2 mM DTT, pH 7.5 at 4° C. The protein was filtered using a 0.22 μm disposable filter unit (Millipore SCGP00525). The protein concentration was calculated from absorbance at 280 nm, using 280=0.67 cm-1 mg-1. Yield was 235 mg, total. The protein was stored at −80° C.
Human Hormone-Sensitive Lipase (HSL) Enzyme Inhibition Assay:
HSL enzyme activity was measured by a colorimetric assay using 2,3-dimercapto-1-propanol tributyrate (Aldrich, St. Louis, Mo.) as a substrate. Typically, 1.5 mM 2,3-dimercapto-1-propanol tributyrate (DMPT) in 100 mM MOPS, pH 7.2, 0.2 mg/ml fatty acid-free BSA was prepared by sonication at 4° C. to homogenous suspension. Test compounds (2 mM stock in DMSO) were diluted 3 fold in series in DMSO. Compound solutions were diluted 24 fold in 1.5 mM DMPT containing solution and 18 ul per well was added to 384-well microplates (Corning Costar). Twelve microliters per well of human HSL (15 ug/ml) was added and the reaction mixture was incubated at 37° C. for 20 minutes. Six microliters of 12 mM dithio-bis-(2-nitrobenzoic acid) (DTNB) in DMSO plus 1.2% SDS and 0.6% Triton X-100 were added and the mixture was incubated at room temperature for 15 minutes. Product production was monitored by reading absorbance at 405 nm on an Envision Reader (PerkinElmer Life and Analytical Sciences, Shelton, Conn.).

One may read the IC50 as the concentration that gives 50% inhibition. On to `Cc1ccc(S(=O)(=O)N2CCC(C(=O)Nc3ccc(OCC(F)(F)F)cc3)CC2)cc1` [Example 14, 1-(Toluene-4-sulfonyl)-piperidine-4-carboxylic acid [4-(2,2,2-trifluoro-ethoxy)-phenyl]-amide], for which the IC50 stood at 0.16 µM.

`CC1(C(=O)Nc2ccc(OC(F)(F)F)cc2)CCN(S(=O)(=O)c2ccccc2Cl)CC1` [Example 58, 1-(2-Chloro-benzenesulfonyl)-4-methyl-piperidine-4-carboxylic acid (4-trifluoromethoxy-phenyl)-amide]: the IC50 turned out to be 0.54 µM.

In the case of `Cc1ccc(S(=O)(=O)N2CCC(C(=O)Nc3ccc(OCC4CC4)cc3)CC2)cc1` [Example 20, 1-(Toluene-4-sulfonyl)-piperidine-4-carboxylic acid (4-cyclopropylmethoxy-phenyl)-amide], the IC50 is 0.17 µM.

`COCCCC1(C(=O)Nc2ccc(OC(C)C)cc2)CCN(S(=O)(=O)c2ccccc2)CC1` [Example 12, 1-Benzenesulfonyl-4-(3-methoxy-propyl)-piperidine-4-carboxylic acid (4-isopropoxy-phenyl)-amide]: the IC50 came to 0.92 µM.

For `Cc1ccc(S(=O)(=O)N2CCC(F)(C(=O)Nc3ccc(C(C)C)cc3)CC2)cc1` [Example 41, 4-Fluoro-1-(toluene-4-sulfonyl)-piperidine-4-carboxylic acid (4-isopropyl-phenyl)-amide], the IC50 turned out to be 0.32 µM.

For `Cc1ccc(S(=O)(=O)N2CCC(C(=O)Nc3ccc(OC(C)(C)C(F)(F)F)cc3)CC2)cc1` [Example 33, 1-(Toluene-4-sulfonyl)-piperidine-4-carboxylic acid [4-(2,2,2-trifluoro-1,1-dimethyl-ethoxy)-phenyl]-amide], the IC50 turned out to be 0.13 µM.

On to `Cc1ccc(S(=O)(=O)N2CCC(C)(C(=O)Nc3ccc(OC(C)C(F)(F)F)cc3)CC2)cc1` (racemic) [Example 43, (rac)-4-Methyl-1-(toluene-4-sulfonyl)-piperidine-4-carboxylic acid [4-(2,2,2-trifluoro-1-methyl-ethoxy)-phenyl]-amide], for which the IC50 was found to be 0.81 µM.

For `COC[C@@H]1C[C@@H](C(=O)Nc2ccc(OC(F)(F)F)cc2)CCN1S(=O)(=O)c1ccc(C)cc1` (racemic) [Example 23, Racemic Mixture of Example 23a which is (2S,4S)-2-Methoxymethyl-1-(toluene-4-sulfonyl)-piperidine-4-carboxylic acid (4-trifluoromethoxy-phenyl)-amide and Example 23b which is (2R,4R)-2-Methoxymethyl-1-(toluene-4-sulfonyl)-piperidine-4-carboxylic acid (4-trifluoromethoxy-phenyl)-amide], the IC50 is 0.11 µM.

`Cc1ccc(S(=O)(=O)N2CCC(C(=O)Nc3ccc(OC(C)C(F)(F)F)cc3)CC2)cc1` (racemic) [Example 25, (rac)-1-(toluene-4-sulfonyl)-piperidine-4-carboxylic acid [4-(2,2,2-trifluoro-1-methyl-ethoxy)-phenyl]-amide]: the IC50 is 0.09 µM.

As to `O=C(NCC1(c2ccc(Cl)cc2)CC1)C1CCN(S(=O)(=O)c2ccccc2)CC1` [Example 62, 1-Benzenesulfonyl-piperidine-4-carboxylic acid [1-(4-chloro-phenyl)-cyclopropylmethyl]-amide], the IC50 stood at 0.53 µM.

With `CC(Oc1ccc(NC(=O)C2(CO)CCN(S(=O)(=O)c3ccccc3Cl)CC2)cc1)C(F)(F)F` (racemic) [Example 24, 1-(2-Chloro-benzenesulfonyl)-4-hydroxymethyl-piperidine-4-carboxylic acid [4-(2,2,2-trifluoro-1-methyl-ethoxy)-phenyl]-amide], the IC50 was found to be 1.14 µM.

As for `COCC(Oc1ccc(NC(=O)C2CCN(S(=O)(=O)c3ccc(C)cc3)CC2)cc1)C(F)(F)F` (racemic) [Example 54, (rac)-1-(Toluene-4-sulfonyl)-piperidine-4-carboxylic acid [4-(2,2,2-trifluoro-1-methoxymethyl-ethoxy)-phenyl]-amide], the IC50 is 0.08 µM.

Values taken from US8258158B2 (Hoffmann-La Roche Inc., priority 2009, dated 2012).
